Data as given in patent US5684151A, “1-arylsulphonyl, arylcarbonyl and 1-arylphosphonyl-3-phenyl-1,4,5,6-tetrahydropyridazines” (priority 1995, dated 1997).
Like-named read-outs stand apart in the source and are kept apart here.

Tests used:
[1] = target: T1, progestin receptor from rabbit uterus (Oryctolagus cuniculus, UniProt P06186); assay: Progestin receptor binding (3H-R5020 displacement); details: rabbit uterine cytosol, 4° C., 18 h, read-out: IC50: Binding affinity for the progestin receptor from rabbit uterus
T1 construct: Cytosolic progestin receptor were obtained by mixing rabbit uterine tissue with a Tris buffer; from tissue; host or cells: rabbit uterus cytosol
T1 sequence (P06186 whole entry): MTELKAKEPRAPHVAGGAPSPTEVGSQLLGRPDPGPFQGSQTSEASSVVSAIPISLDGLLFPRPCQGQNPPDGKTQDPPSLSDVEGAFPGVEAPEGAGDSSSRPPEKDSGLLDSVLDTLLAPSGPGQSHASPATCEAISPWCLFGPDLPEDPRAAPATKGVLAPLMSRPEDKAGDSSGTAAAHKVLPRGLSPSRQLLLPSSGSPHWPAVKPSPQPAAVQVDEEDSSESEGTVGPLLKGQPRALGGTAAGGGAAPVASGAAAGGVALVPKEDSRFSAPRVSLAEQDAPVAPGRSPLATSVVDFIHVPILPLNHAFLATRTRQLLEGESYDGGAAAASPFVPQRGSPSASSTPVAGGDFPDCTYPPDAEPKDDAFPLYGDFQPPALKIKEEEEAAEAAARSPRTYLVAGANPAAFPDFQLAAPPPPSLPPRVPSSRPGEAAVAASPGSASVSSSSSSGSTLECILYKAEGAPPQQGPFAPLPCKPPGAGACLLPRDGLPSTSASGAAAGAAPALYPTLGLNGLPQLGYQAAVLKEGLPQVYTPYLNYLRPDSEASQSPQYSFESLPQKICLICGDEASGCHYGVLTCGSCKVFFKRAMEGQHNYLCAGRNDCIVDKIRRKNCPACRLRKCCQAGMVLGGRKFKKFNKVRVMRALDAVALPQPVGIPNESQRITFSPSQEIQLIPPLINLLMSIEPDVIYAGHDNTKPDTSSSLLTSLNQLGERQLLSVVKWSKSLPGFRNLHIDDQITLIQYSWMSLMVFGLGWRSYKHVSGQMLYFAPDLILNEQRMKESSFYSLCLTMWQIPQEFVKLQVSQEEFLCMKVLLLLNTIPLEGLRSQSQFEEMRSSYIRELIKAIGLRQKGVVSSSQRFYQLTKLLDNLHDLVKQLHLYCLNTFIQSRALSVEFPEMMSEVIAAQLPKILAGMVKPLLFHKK
Procedure: A progestin initiates a biological response by first binding to a progestin receptor. Affinity for progestin receptors was determined by measuring the ability of compounds to displace a progestin radioligand from those receptors in vitro. Cytosolic progestin receptor were obtained by mixing rabbit uterine tissue with a Tris buffer [0.1M Tris-Hcl, 1 mM Na2 EDTA, 1 mM dithiothreotol, 1 mM sodium molybdate, 1% glycerol, pH 7.4]. The tissue/buffer mixture was homogenized under ice-cold conditions. The homogenate was then centrifuged and the supernatant (cytosol preparation) was decanted and stored at -70° C. and thawed prior to use. The competitive binding assay was performed by mixing ^3 H-R5020, a progestin radioligand, with cytosol preparation and various concentrations of test compounds (prepared in DMSO with a final 5% DMSO concentration). This mixture was then incubated at 4° C. for about 18 hours. Non-specific binding was determined using an unlabelled ligand in excess. After the incubation period, the radioligand bound to receptor was separated from free radioligand using dextran-coated charcoal. The amount of bound radioligand was then determined by liquid scintillation counting. The data were expressed as the concentration of test compound that displaced 50% of the radioligand from the receptor (IC50)
Aspects of the application used in this procedure are described in the following: J. L. McGuire et al., Biochemistry 13, 319, 1974.

[2] = tested on: mouse (MC3T3-E1) and human (TE-85) osteoblast-line cells; format: cell-based
Excerpt: Compounds of the present invention have utility to treat osteoporosis through enhancement of bone calcification rather than traditional approaches which generally involve inhibition of bone degeneration or resorption. The compounds of the present invention have been evaluated as stimulators of proliferation of osteoblast cell and chick calivaria bone organ culture which is predictive of enhancement of bone mass and bone formation in vivo.
The action of select compounds to stimulate osteoblast growth was measured in culture by estimating the rate of DNA synthesis by the rate of ^3 H-thymidine incorporation into DNA. Only cells undergoing mitosis synthesized new DNA and thus only these cells incorporated the radiolabelled DNA-specific thymidine. The stimulation of the proliferation and differentiation of bone-forming cells, osteoblasts, was a prerequisite for an increase in bone formation and bone mass. The ability of agents to increase osteoblast proliferation and differentiation can be predicted by their action on cultured osteoblast-line cells in vitro. In this test, mouse (MC3T3-E1) and human (TE-85) osteoblast-line cells (American Type Tissue Culture Collection, #CRL 1543, Rockville, Md. cloned by Sudo et al., Koriyama, Japan) were cultured in vitro and the effect of various agents were tested on osteoblast cell proliferation. Cells were harvested from large culture flasks where they were allowed to grow to near confluency using trypsin. The cells were plated into 96 well culture plates, 1600 cells in 100 μL per well in Dulbencos Modified Eagle's Medium (DMEM) with 25 mM HEPES buffer, L-glutamine (584 mg/L); D-glucose (4.5 g/L) supplemented with fetal bovine sera (10%); penicillin (100 units/mL) and streptomycin (100 mcg/mL); sodium pyruvate (10 μM final concentration). The cells were allowed to plate overnight in DMEM containing 10% fetal bovine sera at 37° C. in an atmosphere of 5% CO2/95% air. Following their placement into 96 well culture plates all the osteoblast-line cells, either the MC3T3-E1 or the TE-85 cell lines, were allowed an additional 24 hours preincubation period in media containing only 0.1% fetal bovine sera.
Twenty hours later, a 20 μL aliquot of media containing 0.4 μCi of ^3 H-thymidine was added to each culture well. The cells were then incubated an additional 4 hours. The incubation was terminated by aspirating the media and washing with HBSS (Hank's Balanced Salt Solution). The cells were then treated with 100 μL of 0.5% trypsin and 5.3 mM EDTA for 30 minutes at room temperature. The cells were then aspirated onto glass fiber filter and washed with water. The radioactivity on the filters was quantified by liquid scintillation spectroscopy. The rate of ^3 H-thymidine incorporation into DNA was then utilized as an index of cell proliferation. The results are shown in Table 13 expressed as % times control where the control is 100%. […]

SMILES | IC50 [1] [nM] | further results
Cc1ccc(S(=O)(=O)N2CC(C)CC(c3ccccc3)=N2)cc1 (stereo not shown) [Compound 143] | 1380 | –
O=S(=O)(c1ccc(F)cc1F)N1CCCC(c2ccccc2)=N1 [Compound 59] | 455 | –
O=S(=O)(c1ccc(I)cc1)N1CCCC(c2ccccc2)=N1 [Compound 50] | 316 | –
O=S(=O)(c1cc(Cl)c(Cl)cc1Cl)N1CCCC(c2ccc(Cl)cc2)=N1 [Compound 68] | 13.4 | –
O=S(=O)(c1ccc2ccccc2c1)N1CCCC(c2ccc3ccccc3c2)=N1 [Compound 132] | 7.5 | –
Fc1ccc(C(=S)N2CCCC(c3ccc(Cl)c(Cl)c3)=N2)cc1Br [Compound 246] | 114 | –
O=S(=O)(c1ccc(I)cc1)N1CCCC(c2cccc(Cl)c2)=N1 [Compound 96] | 12.1 | –
O=S(=O)(c1cc(Cl)ccc1Cl)N1CCCC(c2ccccc2)=N1 [Compound 52] | 42 | –
O=S(=O)(c1ccc(F)cc1)N1CCCC(c2ccccc2)=N1 [Compound 54] | 780 | –
O=S(=O)(c1ccc(Cl)cc1)N1CCCC(c2ccccc2)=N1 [Compound 48] | 266 | –
O=S(=O)(c1ccc(Cl)cc1)N1CCCC(c2cccc(Cl)c2)=N1 [Compound 93] | 11.1 | –
O=[N+]([O-])c1ccccc1S(=O)(=O)N1CCCC(c2ccc(F)cc2)=N1 [Compound 24] | 308 | –
O=S(=O)(/C=C/c1ccc2ccccc2c1)N1CCCC(c2ccc(Cl)c(C(F)(F)F)c2)=N1 [Compound 177] | 528 | –
O=S(=O)(c1ccc(Cl)c(Cl)c1)N1CCCC(c2ccc(Cl)cc2)=N1 [Compound 30] | 22 | –
O=S(=O)(c1ccccc1)N1CCCC(c2ccccc2)=N1 [Compound 66] | 375 | –
O=S(=O)(c1cc(Cl)ccc1Cl)N1CCCC(c2ccc(Br)cc2)=N1 [Compound 102] | 9 | –
O=S(=O)(c1ccc(I)cc1)N1CCCC(c2ccc(F)cc2)=N1 [Compound 20] | 56 | –
Cc1ccc(S(=O)(=O)N2CCCC(c3cccc(Cl)c3)=N2)cc1 [Compound 92] | 23.9 | –
O=[N+]([O-])c1cccc(S(=O)(=O)N2CCCC(c3ccc(Cl)c(C(F)(F)F)c3)=N2)c1 [Compound 127] | 4.04 | –
COC(=O)CCCOc1ccc(Br)cc1S(=O)(=O)N1CCCC(c2ccc(Cl)c(Cl)c2)=N1 [Compound 136, 3-(3,4-dichlorophenyl)-1-(2-(3-carbomethoxypropxy)-5-bromobenzenesulphonyl)-1,4,5,6-tetrahydropyridazine] | 70 | –
COC(=O)c1ccccc1S(=O)(=O)N1CCCC(c2ccc(Cl)cc2)=N1 [Compound 29] | 244 | –
O=[N+]([O-])c1cccc(S(=O)(=O)N2CCCC(c3ccccc3)=N2)c1 [Compound 62] | 157 | –
O=S(=O)(c1ccc(C(F)(F)F)cc1)N1CCCC(c2ccc3ccccc3c2)=N1 [Compound 129] | 4.94 | –
O=S(=O)(c1ccc(Br)cc1)N1CCCC(c2ccccc2)=N1 [Compound 49] | 127 | –
O=S(=O)(c1cccc2ccccc12)N1CCCC(c2ccccc2)=N1 [Compound 56] | 85.2 | –
O=S(=O)(c1ccc(I)cc1)N1CCCC(c2ccc(Cl)cc2)=N1 [Compound 16] | 4.2 | –

SMILES | IC50 [1] [nM] | further results
O=S(=O)(c1ccc(Cl)cc1)N1CCCC(c2ccc3ccccc3c2)=N1 [Compound 117] | 4.97 | –
COC(=O)c1ccc(S(=O)(=O)N2CCCC(c3ccc(Cl)c(Cl)c3)=N2)cc1 [Compound 273, 3-(3,4-Dichlorophenyl)-1-(4-carbomethoxybenzesulfonyl)-1,4,5,6-tetrahydropyridazine] | 3.4 | –
Cc1ccc(S(=O)(=O)N2CCCC(c3ccc(Br)cc3)=N2)cc1 [Compound 101] | 195 | –
O=S(=O)(c1ccc(F)cc1)N1CCCC(c2ccc(Cl)c(Cl)c2)=N1 [Compound 106] | 7.11 | –
O=S(=O)(c1ccc(C(F)(F)C(F)(F)F)cc1)N1CCCC(c2ccc(Cl)c(Cl)c2)=N1 [Compound 272, 3-(3,4-Dichlorophenyl)-1-(4-pentafluoroethylbenzenesulfonyl)-1,4,5,6-tetrahydropyridazine] | 329 | –
O=S(=O)(/C=C/c1ccccc1)N1CCCC(c2ccc(Cl)c(C(F)(F)F)c2)=N1 [Compound 276] | 53.9 | –
O=S(=O)(c1cc(Cl)ccc1Cl)N1CCCC(c2cccc(Cl)c2)=N1 [Compound 91] | 2.39 | –
O=S(=O)(c1ccc(I)cc1)N1N=C(c2ccc(Cl)cc2)CC2CC=CC21 (stereo not shown) [Compound 160, 3-(4-Chlorophenyl)-1-(4-iodobenzenesulfonyl)-4,4a,5,7a-tetrahydro-1H-cyclopenta[c]pyridiazine] | 32 | –
O=S(=O)(c1ccc(Cl)cc1)N1CCCC(c2ccc(Br)cc2)=N1 [Compound 99] | 21 | –
O=S(=O)(c1ccccc1)N1CCCC(c2ccc3ccccc3c2)=N1 [Compound 131] | 17.4 | –
O=S(=O)(c1ccc(C(F)(F)F)cc1)N1CCCC(c2ccccc2)=N1 [Compound 61] | 435 | –
CCCCc1ccc(S(=O)(=O)N2CCCC(c3ccc(Cl)c(C(F)(F)F)c3)=N2)cc1 [Compound 116] | 8.77 | –
Cc1ccc(C(=O)N2CCCC(c3ccc(Cl)cc3)=N2)cc1 [Compound 146, 1-(4-Methylbenzoyl)-3-(4-chlorophenyl)-1,4,5,6-tetrahydropyridazine] | 1000 | –
O=[N+]([O-])c1cc(S(=O)(=O)N2CCCC(c3ccccc3)=N2)ccc1Cl [Compound 58] | 444 | –
O=S(=O)(c1cc(Cl)c(Cl)cc1Cl)N1CCCC(c2ccc(Cl)c(Cl)c2)=N1 [Compound 107] | 7.45 | –
O=S(=O)(c1ccc(I)cc1)N1CCCC(c2ccc3c(c2)oc2ccccc23)=N1 [Compound 145, 3-(Dibenzofuran-3-yl)-1-(4-iodobenzenesulfonyl)-1,4,5,6-tetrahydropyradazine] | 100 | –
CCCCc1ccc(C2=NN(S(=O)(=O)c3ccccc3)CCC2)cc1 [Compound 76] | 10000 | –
O=[N+]([O-])c1ccc(S(=O)(=O)N2CCCC(c3ccc(Cl)c(C(F)(F)F)c3)=N2)cc1 [Compound 128] | 14.2 | –
O=S(=O)(c1ccc(Cl)c(Cl)c1)N1CCCC(c2ccccc2)=N1 [Compound 60] | 191 | –
O=S(=O)(c1ccccc1)N1CCCC(c2ccc(Br)cc2)=N1 [Compound 103] | 149 | –
CCCCc1ccc(S(=O)(=O)N2CCCC(c3ccccc3)=N2)cc1 [Compound 55] | 21.9 | –
O=[N+]([O-])c1ccc(S(=O)(=O)N2CCCC(c3ccccc3)=N2)cc1 [Compound 53] | 2200 | –
O=S(=O)(c1ccccc1)N1CCCC(c2ccc(Cl)c(C(F)(F)F)c2)=N1 [Compound 83] | 4.83 | –
CCCCc1ccc(C2=NN(C(=O)c3ccc(Cl)c(Cl)c3)CCC2)cc1 [Compound 231] | – | Osteoblast Cell Proliferation, 3H-thymidine incorporation vs control (100%) ([2]; 10^-7): 115%; Osteoblast Cell Proliferation, 3H-thymidine incorporation vs control (100%) ([2]; 10^-8): 103%; Osteoblast Cell Proliferation, 3H-thymidine incorporation vs control (100%) ([2]; 10^-9): 145%; Osteoblast Cell Proliferation, 3H-thymidine incorporation vs control (100%) ([2]; 10^-10): 133%
O=S(=O)(/C=C/c1ccccc1)N1CCCC(c2ccc3c(c2)CCCC3)=N1 [Compound 176] | – | Osteoblast Cell Proliferation, 3H-thymidine incorporation vs control (100%) ([2]; 10^-6): 59%; Osteoblast Cell Proliferation, 3H-thymidine incorporation vs control (100%) ([2]; 10^-7): 94%; Osteoblast Cell Proliferation, 3H-thymidine incorporation vs control (100%) ([2]; 10^-8): 109%; Osteoblast Cell Proliferation, 3H-thymidine incorporation vs control (100%) ([2]; 10^-9): 113%; Osteoblast Cell Proliferation, 3H-thymidine incorporation vs control (100%) ([2]; 10^-10): 109%
